Laboratory results reported in patent US11629171B2, “Beta-hairpin peptidomimetics” (POLYPHOR AG, priority 2017, dated 2023).
≈ marks a conversion by molar mass, not a printed value. Where a SMILES comes first, the peptide text is derived from it. Bridges are numbered along the chain shown (N, C = ends). Roman numbers before positions name the chains, in order. [ ]: non-standard residue; d: D form. The star is where a group is joined. Thr(ol) = C[C@@H](O)[C@H](N)CO; Tle = CC(C)(C)[C@H](N)C(=O)O; Hiv = CC(C)[C@H](O)C(=O)O; dDab = NCC[C@@H](N)C(=O)O; NHCH(CH2OH)2 = OCC(CO)N*; Orn = NCCC[C@H](N)C(=O)O; Dab = NCC[C@H](N)C(=O)O; Abu = CC[C@H](N)C(=O)O; Dap = NC[C@H](N)C(=O)O

Tests used:
male ICR mice = test: Tolerability in a mouse model (Maximum Tolerated Dose assay); assay type: in vivo; conditions: 2 × 30 mg/kg s.c. at a 12-hr interval, groups of 3
Description: The tolerability of the peptides was tested in a mouse model at Pharmacology Discovery Services Taiwan Ltd, Taipei, Taiwan. The peptides were administered subcutaneously (s.c.) at 30 mg/kg or 40 mg/kg, respectively; twice at a 12-hr interval, for assessment of possible adverse effects in the Maximum Tolerated Dose (MTD) assay in male ICR (Institute of Cancer Research) mice. The peptides were dissolved in 0.9% NaCl at the concentrations either of 6 or 8 mg/mL, respectively, based on the free base molecular weight. The pH values of dosing solutions were adjusted to 6.5-7.6 before s.c. administration. A dosing volume at 5 mL/kg and a concentration of 6 or 8 mg/mL, respectively, was applied. The fresh prepared stock solution were stored at 4° C. during the study. Male ICR mice weighing 23±3 g were provided by BioLasco Taiwan (under Charles River Laboratories Licensee). Animals were acclimated for 3 days prior to use and were confirmed to be in good health. The peptides were administered s.c. at 30 mg/kg or 40 mg/kg, respectively, twice at a 12-hr interval, to groups of 3 ICR male mice and observed for the presence of acute toxic symptoms (mortality, convulsions, tremors, muscle relaxation, sedation, etc.) and autonomic effects (diarrhea, salivation, lacrimation, vasodilation, piloerection, etc.) during the first 30 min. The peptides were administered again at a 12-hr (two total doses) interval, following the first dose. The animals were then observed again for the presence of acute toxic symptoms and autonomic effects during the first 30 min.

[1] = test system: human red blood cells (hRBC); test: Hemolysis; assay type: cell-based; conditions: red cells of human, 1 h, 200
Outline: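 First, fresh human erythrocytes are washed in PBS; next, they are incubated at 20% (v/v) with compound at 200 μg/mL for 1 h at 37° C. Finally, centrifuged supernatants are diluted and OD540 is taken relative to the Triton X-100 lysis control.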

Escherichia coli 926415 = assay type: cell-based; conditions: 926415
Outline: (§1)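 MIC in μg/mL, read as no visible growth after 18-20 hours at 35° C. Peptides were serially diluted two-fold in MH-II broth plus P-80 (0.002% final, v/v) and inoculated at about 10^6 CFU/mL following the CLSI broth microdilution standard.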

[2] = test system: Pseudomonas aeruginosa ATCC 27853; assay type: cell-based; conditions: ATCC 27853
Outline: as §1

[3] = test system: Klebsiella pneumoniae 968733; assay type: cell-based; conditions: 968733
Outline: as §1

[4] = test system: Enterobacter cloacae 848840; assay type: cell-based; conditions: 848840
Outline: as §1

[5] = test system: Acinetobacter baumannii DSM 30008; assay type: cell-based; conditions: DSM 30008
Outline: as §1

[6] = test system: Acinetobacter baumannii 872842; assay type: cell-based; conditions: 872842
Outline: as §1

[7] = test system: Klebsiella pneumoniae SSI #3010; assay type: cell-based; conditions: SSI #3010
Outline: as §1

[8] = test system: Escherichia coli ATCC 25922; assay type: cell-based; conditions: ATCC 25922
Outline: as §1

Structure (SMILES)	Mortality and dose (male ICR mice)	Hemolysis at 200 μg/mL [1] [%]	MIC (Escherichia coli 926415) [µg/mL]	MIC [2] [µg/mL]	MIC [3] [µg/mL]	MIC [4] [µg/mL]	MIC [5] [µg/mL]	MIC [6] [µg/mL]	MIC [7] [µg/mL]	MIC [8] [µg/mL]
CC(=O)N[C@H](C(=O)N[C@H]1CSSC[C@@H](C(=O)NC(CO)CO)NC(=O)[C@H](C(C)C)NC(=O)[C@H](CO)NC(=O)[C@H](Cc2c[nH]c3ccccc23)NC(=O)[C@H](CO)NC(=O)[C@@H](CCN)NC(=O)[C@H](CCC(=O)N[C@@H](CCN)C(=O)N[C@H](C(=O)N[C@@H](CN)C(=O)N[C@H]2CCNC(=O)[C@H]([C@@H](C)O)NC(=O)[C@H](CCN)NC(=O)[C@H](CCN)NC(=O)[C@H](CC(C)C)NC(=O)[C@@H](CC(C)C)NC(=O)[C@H](CCN)NC2=O)[C@@H](C)O)NC(=O)[C@H](CCN)NC(=O)[C@H](Cc2ccc(O)cc2)NC1=O)C(C)C [Ex. 116] (I: Ac-VCY[Dab]E[dDab]SWSVC-{NHCH(CH2OH)2} / II: [Dab]T[Dap][Dab][Dab][dL]L[Dab][Dab]T; disulfide I:2-I:11; amide I:5-II:N; lactam II:4-II:C)	0/3 died at 2 × 30 mg/kg	<1	0.125 (≈ 0.0524 µM)	0.125 (≈ 0.0524 µM)	0.25 (≈ 0.105 µM)	0.03125 (≈ 0.0131 µM)	0.03125 (≈ 0.0131 µM)	0.0625 (≈ 0.0262 µM)	0.03125 (≈ 0.0131 µM)	0.03125 (≈ 0.0131 µM)
CC[C@@H]1NC(=O)[C@@H](CC(C)C)NC(=O)[C@H](CCN)NC(=O)[C@@H](NC(=O)[C@H](CN)NC(=O)[C@@H](NC(=O)[C@H](CCN)NC(=O)CC[C@@H]2NC(=O)[C@H](CCN)NC(=O)[C@H](Cc3ccc(O)cc3)NC(=O)[C@@H](NC(=O)[C@@H](NC(C)=O)C(C)C)CSSC[C@@H](C(=O)N[C@@H](CO)C(N)=O)NC(=O)[C@H](C(C)C)NC(=O)[C@H](CO)NC(=O)[C@H](Cc3c[nH]c4ccccc34)NC(=O)[C@H](CO)NC(=O)[C@@H](CCN)NC2=O)[C@@H](C)O)CCNC(=O)[C@H]([C@@H](C)O)NC(=O)[C@H](CCN)NC(=O)[C@H](CCN)NC1=O [Ex. 137] (I: Ac-VCY[Dab]E[dDab]SWSVCS-NH2 / II: [Dab]T[Dap][Dab][Dab][dL][Abu][Dab][Dab]T; disulfide I:2-I:11; amide I:5-II:N; lactam II:4-II:C)	0/3 died at 2 × 30 mg/kg	1	0.125 (≈ 0.0527 µM)	0.125 (≈ 0.0527 µM)	0.125 (≈ 0.0527 µM)	0.0625 (≈ 0.0264 µM)	0.0625 (≈ 0.0264 µM)	0.125 (≈ 0.0527 µM)	0.0625 (≈ 0.0264 µM)	0.03125 (≈ 0.0132 µM)
CC(=O)N[C@H](C(=O)N[C@H]1CSSC[C@@H](C(=O)N[C@@H](CO)C(N)=O)NC(=O)[C@H](C(C)C)NC(=O)[C@H](CCC(=O)O)NC(=O)[C@H](Cc2c[nH]c3ccccc23)NC(=O)[C@H](CO)NC(=O)[C@@H](CCN)NC(=O)[C@H](CCC(=O)N[C@@H](CCN)C(=O)N[C@H](C(=O)N[C@@H](CN)C(=O)N[C@H]2CCNC(=O)[C@H]([C@@H](C)O)NC(=O)[C@H](CCN)NC(=O)[C@H](CCN)NC(=O)[C@H](CC(C)C)NC(=O)[C@@H](CC(C)C)NC(=O)[C@H](CCN)NC2=O)[C@@H](C)O)NC(=O)[C@H](CCN)NC(=O)[C@H](Cc2ccc(O)cc2)NC1=O)C(C)C [Ex. 150] (I: Ac-VCY[Dab]E[dDab]SWEVCS-NH2 / II: [Dab]T[Dap][Dab][Dab][dL]L[Dab][Dab]T; disulfide I:2-I:11; amide I:5-II:N; lactam II:4-II:C)	0/3 died at 2 × 30 mg/kg	<1	0.25 (≈ 0.102 µM)	0.125 (≈ 0.0512 µM)	0.5 (≈ 0.205 µM)	0.125 (≈ 0.0512 µM)	0.0625 (≈ 0.0256 µM)	0.125 (≈ 0.0512 µM)	0.125 (≈ 0.0512 µM)	0.03125 (≈ 0.0128 µM)
CC(C)C[C@@H]1NC(=O)[C@@H](CC(C)C)NC(=O)[C@H](CCN)NC(=O)[C@@H](NC(=O)[C@H](CN)NC(=O)[C@@H](NC(=O)[C@H](CCN)NC(=O)CC[C@H]2NC(=O)[C@H](CCCN)NC(=O)[C@H](CCN)NC(=O)[C@H](Cc3ccc(O)cc3)NC(=O)[C@@H](NC(=O)[C@@H](O)C(C)C)CSSC[C@@H](C(=O)N[C@H](C(N)=O)[C@@H](C)O)NC(=O)[C@H](C(C)(C)C)NC(=O)[C@H](CO)NC(=O)[C@H](Cc3c[nH]c4ccccc34)NC(=O)[C@H]([C@@H](C)O)NC2=O)[C@@H](C)O)CCNC(=O)[C@H]([C@@H](C)O)NC(=O)[C@H](CCN)NC(=O)[C@H](CCN)NC1=O [Ex. 161] (I: H-[Hiv]CY[Dab][Orn][dE]TWS[Tle]CT-NH2 / II: [Dab]T[Dap][Dab][Dab][dL]L[Dab][Dab]T; disulfide I:2-I:11; amide I:6-II:N; lactam II:4-II:C)	0/3 died at 2 × 30 mg/kg	1	0.5 (≈ 0.207 µM)	0.25 (≈ 0.104 µM)	0.25 (≈ 0.104 µM)	1 (≈ 0.414 µM)	0.125 (≈ 0.0518 µM)	0.25 (≈ 0.104 µM)	0.125 (≈ 0.0518 µM)	0.125 (≈ 0.0518 µM)
CC(C)C[C@@H]1NC(=O)[C@@H](CC(C)C)NC(=O)[C@H](CCN)NC(=O)[C@@H](NC(=O)[C@H](CCN)NC(=O)[C@@H](NC(=O)[C@H](CCN)NC(=O)CC[C@@H]2NC(=O)[C@@H](NC(=O)[C@H](Cc3ccc(O)cc3)NC(=O)[C@@H](NC(=O)[C@@H](O)C(C)C)[C@@H](C)O)CSSC[C@@H](C(=O)N[C@H](C(=O)N[C@@H](C)C(=O)N[C@H](CO)[C@@H](C)O)C(C)(C)C)NC(=O)[C@H](Cc3c[nH]c4ccccc34)NC(=O)[C@H]([C@@H](C)O)NC(=O)[C@@H](CCN)NC2=O)[C@@H](C)O)CCNC(=O)[C@H]([C@@H](C)O)NC(=O)[C@H](CCN)NC(=O)[C@H](CCN)NC1=O [Ex. 188] (I: H-[Hiv]TYCE[dDab]TWC[Tle]A[Thr(ol)] / II: [Dab]T[Dab][Dab][Dab][dL]L[Dab][Dab]T; disulfide I:4-I:9; amide I:5-II:N; lactam II:4-II:C)	0/3 died at 2 × 30 mg/kg	<1	0.5 (≈ 0.21 µM)	0.5 (≈ 0.21 µM)	1 (≈ 0.419 µM)	0.5 (≈ 0.21 µM)	0.125 (≈ 0.0524 µM)	0.5 (≈ 0.21 µM)	0.25 (≈ 0.105 µM)	0.0625 (≈ 0.0262 µM)
CC(=O)N[C@H](C(=O)N[C@H](C(=O)N[C@@H](Cc1ccc(O)cc1)C(=O)N[C@H]1CSSC[C@@H](C(=O)N[C@H](C(=O)N[C@@H](C)C(=O)N[C@H](C(N)=O)[C@@H](C)O)C(C)C)NC(=O)[C@H](Cc2c[nH]c3ccccc23)NC(=O)[C@H](CO)NC(=O)[C@@H](CCN)NC(=O)[C@H](CCC(=O)N[C@@H](CCN)C(=O)N[C@H](C(=O)N[C@@H](CN)C(=O)N[C@H]2CCNC(=O)[C@H]([C@@H](C)O)NC(=O)[C@H](CCN)NC(=O)[C@H](CCN)NC(=O)[C@H](CC(C)C)NC(=O)[C@@H](CC(C)C)NC(=O)[C@H](CCN)NC2=O)[C@@H](C)O)NC1=O)[C@@H](C)O)C(C)C [Ex. 219] (I: Ac-VTYCE[dDab]SWCVAT-NH2 / II: [Dab]T[Dap][Dab][Dab][dL]L[Dab][Dab]T; disulfide I:4-I:9; amide I:5-II:N; lactam II:4-II:C)	0/3 died at 2 × 30 mg/kg	<1	0.25 (≈ 0.104 µM)	0.125 (≈ 0.0521 µM)	0.5 (≈ 0.209 µM)	0.125 (≈ 0.0521 µM)	0.03125 (≈ 0.013 µM)	0.125 (≈ 0.0521 µM)	0.0625 (≈ 0.0261 µM)	0.03125 (≈ 0.013 µM)
